The test system of assay [1] is Normal human mammary epithelial cells (M99005). The assay is described as follows: Trypan Blue cell count, normal cells, 48 hours. Format: cell-based. The method, then:
For comparison purposes, the growth inhibitory does of 4SP65 required to reduce the growth of normal human mammary epithelial cells by 50% was above 300 micromolar. The exact value has not been determined as of yet due to the fact that 4SP65 forms a hydrogel in medium when present at a concentration that exceeds 300 micromolar.
Normal human mammary epithelial cells were grown as described in Example 1, with the exception that the growth medium was as MEBM (purchased from American Type Tissue Culture Collection). When the cells had reach 50 to 60%, the growth medium was removed and medium supplemented with 0 to 300 microM 4SP65 was added to each well containing cells. At 48 hours, the cells were removed by trypsinization stained with Trypan Blue, and counted using a hemocytometer. […] The finding of a biphasic growth inhibition curve for WR-1065 has been reported previously (Calabro-Jones et al. “The limits to radioprotection of Chinese hamster V79 cells by WR-1065 under aerobic conditions.” Radiat Res. 149:550-559 (1998), which is hereby incorporated by reference in its entirety). Additional experiments now have been completed and are described infra).

A further assay relates to H1437 NSCLC cells. The experiment in a line: Alamar Blue (resazurin) cellular reducing capacity. It counts as cell-based, human. The note with it: until cell numbers reduced to approximately 50% of controls. The source says: The aminothiol-conjugates of the present disclosure (e.g., 4SP65 and 1LP65) are disulfides that require reduction by glutathione or thioredoxin for the two constituent molecules (WR1065 and PEG-SH scaffold) to be released. […] After an aminothiol-conjugate of the present disclosure (e.g., 4SP65 and 1LP65) enters the cytoplasm, either glutathione or thioredoxin reduces the BRG disulfide bond (Rxn #1) to yield reduced WR1065 and PEG-SH scaffold. In normal cells with a reducing cytosolic redox balance, evidence of formation of free radical intermediates during this reaction has not been reported, but formation of […] has been reported (Nagy, P., “Kinetics and Mechanisms of Thiol-Disulfide Exchange Covering Direct Substitution and Thiol Oxidation-Mediated Pathways,” Antioxid Redox Signal 18 (13): 1623-1641 (2013), which is hereby incorporated by reference in its entirety). Conversely, in cancer cells where the cellular environment is shifted towards oxidizing conditions, there is evidence that reactive species such as thiyl free radicals can be formed (Nagy, P., “Kinetics and Mechanisms of Thiol-Disulfide Exchange Covering Direct Substitution and Thiol Oxidation-Mediated Pathways,” Antioxid. Redox Signal 18 (13): 1623-1641 (2013), which is hereby incorporated by reference in its entirety), which can have adverse effects in neoplastic cells. […]
In general terms: Resazurin is reduced to fluorescent resorufin, in cell work by metabolically active cells.

pEC50: −log10 of the molar value.

With 4-star PEG-S-S-WR1065 [4SP65], in assay [1] (0 to 300 microM except 100 microM, 48 hours), the “inhibition of cell growth” value is “No inhibition of cell growth was observed”. In addition, the pEC50 in assay [1] (normal human mammary epithelial cells, read-out: growth inhibitory dose required to reduce growth by 50%) was under 3.52. Also, the “cellular reducing capacity relative to control cells” value with H1437 NSCLC cells was about 100%.

Source of the values: US20250144050A1, “AMINOTHIOL-CONJUGATES, COMPOSITIONS, AND METHODS OF USE THEREOF” (THE BURLINGTON HC RESEARCH GROUP, INC., priority 2021, published 2025).
